# Values of other authors in patent US20210299077A1, “LIPOSOMAL REDUCED GLUTATHIONE (LRG) IN COMBINATION WITH IVERMECTIN FOR THE TREATMENT OF COVID-19” (Your Energy Systems, LLC, priority 2020, published 2021).
# Where two headings read alike, the source gives them in different places.
# Assays:
# [1] = test system: SARS-CoV-2
# [2] = test system: SARS-CoV; conditions: mouse SARS-CoV model
# [3] = test system: COVID-19; conditions: COVID-19 patients
# [4] = test system: influenza viruses; conditions: 300 mg twice a day for 5 days
# [5] = test system: SARS-CoV; conditions: in vitro studies
# [6] = single oral dose of 2000 mg
# [7] = patients receiving remdesivir
smiles,measurement,setting,value
CCN(CCO)CCCC(C)Nc1ccnc2cc(Cl)ccc12 (stereo not shown) [hydroxychloroquine],in-vitro activity against SARS-CoV-2,[1],relatively higher potency against SARS-CoV-2
CCN(CC)CCCC(C)Nc1ccnc2cc(Cl)ccc12 (stereo not shown) [chloroquine],efficacy in inhibiting viral replication,[2],did not show efficacy
same,clinical and virologic outcome versus a comparison group,[3],clinical and virologic benefit
"CC(=O)Oc1ccccc1C(=O)Nc1ncc([N+](=O)[O-])s1 [NTZ, Nitazoxanide]",symptoms and infectious viral load,[4],reduction of symptoms and infectious viral load
same,tolerability,[4],well tolerated
O=C(Nc1ccc([N+](=O)[O-])cc1Cl)c1cc(Cl)ccc1O [niclosamide],inhibition of SARS-CoV replication,[5],able to inhibit SARS-CoV replication at a micromolar concentration
same,aqueous solubility,,limited aqueous solubility
same,maximum serum concentration,[6],0.25 to 6.0 µg/mL
same,maximum serum concentration,[6]; same range in μM,0.76 to 18.3 µM
CCC(CC)COC(=O)[C@H](C)N[P@](=O)(OC[C@H]1O[C@@](C#N)(c2ccc3c(N)ncnn23)[C@H](O)[C@@H]1O)Oc1ccccc1 [Remdesivir],adverse events,[7],"nausea, vomiting, rectal bleeding, and elevated liver enzymes"
